A word on the IC50: it is the concentration needed to halve the response being measured. Lower therefore signals greater potency. The inhibition is the relative decrease from the control value, in per cent.

Experiment [1] addresses T1, SARS-CoV-2 3CL protease (Severe acute respiratory syndrome coronavirus 2, UniProt P0DTD1). In words: Biochemical inhibition of peptide cleavage by purified SARS-CoV-2 3CL protease (fluorogenic).
Experiment [2] concerns the target T1, SARS-CoV-2 3CL protease. In words: Mass spectrometry (MALDI-TOF) analysis of protein-inhibitor complex. It counts as binding. The following applies: 50 μM protease, 500 μM inhibitor, 1 h at 4 °C. On the procedure:
For MALDI-TOF MS analysis, 1 µL of the protein-inhibitor complex (3CL protease only and 3CL protease-CB6778425) was mixed with 9 µL of 10 mg/mL sinapinic acid in the matrix solution (70:30 water/acetonitrile, with 0.1% TFA). About 1.0 µL of the final mix was deposited onto the target carrier and allowed to air dry. MALDI spectra of the protein-inhibitor complex were compared with ligand-free 3CL protease to determine the mass shift. MALDI spectra were collected with the software flexControl, while MALDI data were analyzed by flexAnalysis.

[3] abbreviates: read-out: SARS-CoV-2 3CL Inhibition (%).

“And” between values parts separate entries of the source, which are not always exact repeats. Equal entries are not always repeated.

`CCc1cc(=O)oc2cc(OC(=O)c3ccco3)ccc12` [CB6728297]: in experiment [1], the IC50 worked out at 245 nM and the “shift of IC50 upon pre-incubation with SARS-CoV-2 3CL” value was “shifts to lower IC50s”. In experiment [1] (setting [3]), the inhibition at 0.0976563 µM is 9.07%; the inhibition at 0.19382 µM is 94.7% and 89.2%; the inhibition at 0.195313 µM is 39.5%; the inhibition at 0.390625 µM came out at 64.9%. Besides, in experiment [1] (setting [3]), the inhibition at 0.49485 µM was 88.9%, the inhibition at 0.78125 µM came to 90.8%, the inhibition at 0.79588 µM came to 93.8% and the inhibition at 1.09691 µM is 98.7%. In experiment [1] (setting [3]), the inhibition at 1.39794 µM is 93.4%, the inhibition at 1.69897 µM worked out at 95.6%, the inhibition at 2 µM came out at 88.8% and the inhibition at 2.30103 µM stood at 99.1%.

Take `O=C(Oc1ccc2ccc(=O)oc2c1)c1ccco1` [CB6778425]: the “mass shift in the protease-inhibitor complex” value in experiment [2] is given as ~ 95 Da. In experiment [1] (setting [3]), the inhibition at 0.000762939 µM worked out at 0.215%, the inhibition at 0.00152588 µM turned out to be 4.28%, the inhibition at 0.0244141 µM is 19.7% and the inhibition at 0.0488281 µM stood at 39.2%. Besides, in experiment [1] (setting [3]), the inhibition at 0.0976563 µM was 62.7%, the inhibition at 0.19382 µM was found to be 104%, the inhibition at 0.195313 µM is 85.1% and the inhibition at 0.390625 µM stood at 94.5%. Moreover, in experiment [1] (setting [3]), the inhibition at 0.49485 µM worked out at 102%, the inhibition at 0.78125 µM came out at 98.7%, the inhibition at 0.79588 µM stood at 95% and the inhibition at 1.09691 µM was found to be 96.4%. Further, in experiment [1] (setting [3]), the inhibition at 1.39794 µM is 103%, the inhibition at 1.69897 µM stood at 98%, the inhibition at 2 µM was 95% and the inhibition at 2.30103 µM worked out at 90.6%. Also, the inhibition at […] in experiment [1] (setting [3]) came to 11.4%.

Turning to `O=C(Oc1ccc2ccc(=O)oc2c1)c1cccs1` [CB6762077], in experiment [1], the IC50 worked out at 1100 nM and the “shift of IC50 upon pre-incubation with SARS-CoV-2 3CL” value is “shifts to lower IC50s”. In experiment [1] (setting [3]), the inhibition at 0.19382 µM was 71.8%, the inhibition at 0.390625 µM was determined as 12.9%, the inhibition at 0.49485 µM was 77.7% and the inhibition at 0.78125 µM is 30.2%. For the same compound, in experiment [1] (setting [3]), the inhibition at 0.79588 µM turned out to be 75.9%, the inhibition at 1.09691 µM was 90.1%, the inhibition at 1.39794 µM stood at 88.9% and the inhibition at 1.69897 µM came out at 94.3%. In addition, the inhibition at 2 µM in experiment [1] (setting [3]) came out at 112%.

(Values after article PMC11790949, “A multiplex method for rapidly identifying viral protease inhibitors” (Molecular Systems Biology, 2025).)
